Tests used:
[1] = Stability in aqueous solution (PBS), peptide remaining in solution by HPLC; assay type: physicochemical; conditions: 10 mg/ml in PBS, about pH 7.3 to 7.5, 37° C.
[2] = Intravenous pharmacokinetics in cynomolgus monkeys; assay type: in vivo, cynomolgus monkeys (Macaca fasicularis); conditions: for clearance / half-life: cynomolgus monkey, plasma, iv, dosed intravenously; for half-life: read-out: Half-life (t ½; hr) (converted); for biological half-life relative to base sequence, in words: comment on Table 2
Experimental: For determining pharmacokinetic properties, an HIV fusion inhibitor peptide or a base sequence from which an HIV fusion inhibitor peptide is derived was dosed intravenously in cynomolgus monkeys (Macaca fasicularis) (other animal models may be used for determining pharmacokinetic properties, as known in the art). At various times post-dose, blood samples were drawn and plasma isolated by centrifugation. Plasma samples were stored frozen until analysis by LC-MS (liquid chromatography/mass spectrometry) in the electrospray, positive-ion mode. An HIV fusion inhibitor or base sequence was eluted from a C18 or C8 HPLC column with a gradient of acetonitrile in a buffer of 10 mM ammonium acetate, pH 6.8. At the time of analysis, plasma samples were deproteinated with either two or three volumes of acetonitrile containing 0.5% formic acid. Duplicate calibration standards in cynomolgus plasma samples were prepared at the same time as the samples and analyzed before and after the samples containing either HIV fusion inhibitor peptide or base sequence. Pharmacokinetic properties were calculated from the plasma concentration-time data using either mono-exponential or bi-exponential mathematical models. Models were derived by non-linear least squares optimization. A 1/C^2 weighting of concentrations was used. The following equations were used to calculate area-under the plasma concentration vs. time curve (AUC), total body clearance (Cl), and terminal elimination half-life (t ½).
Where A and B are intercepts and a and b are the rate constants of the exponential equations describing the distribution and elimination phases, respectively. When mono-exponential models were used, the “A” and “a” properties were eliminated.
Cl=Dose/AUC (expressed in L/K/hr)
t½=0.6903/b (expressed in hr)

HIV-IIIB = conditions: 50% reduction in infectious virus titer
Source text: Assessment of biological properties included measurement of antiviral activity against HIV-1 strains. […] These assays score for reduction of infectious virus titer employing the indicator cell lines MAGI or the CCR5 expressing derivative cMAGI. Both cell lines exploit the ability of HIV-1 tat to transactivate the expression of a β-galactosidase reporter gene driven by the HIV-LTR. The β-gal reporter has been modified to localize in the nucleus and can be detected with the X-gal substrate as intense nuclear staining within a few days of infection. The number of stained nuclei can thus be interpreted as equal to the number of infectious virions in the challenge inoculum if there is only one round of infection prior to staining. […] In the MAGI and cMAGI assays, a 50% reduction in infectious titer (Vn/Vo=0.5) is significant, and provides the primary cutoff value for assessing antiviral activity (“IC50” is defined as the concentration of active ingredient resulting in a 50% reduction in infectious virus titer). […] The number of infected cells for each control and peptide dilution was determined with the CCD-imager, and then the IC50 was calculated (expressed in μg/ml).

[3] = Thermal stability (Tm) by CD signal at 222 nm; assay type: physicochemical; conditions: CD at 222 nm, maximum of first derivative of thermal transition
Experimental: (§1) Assessment of biophysical parameters included measurement of helicity and thermal stability. Helicity was assessed by circular dichroism (“CD”) as follows. Briefly, CD spectra were obtained using a spectrometer equipped with a thermoelectric temperature controller. The spectra was obtained at 25° C. with 0.5 nanometer (nm) steps from 200 to 260 nm, with a 1.5 nm bandwith, and a typical averaging time of 4 seconds/step. After the cell/buffer blank was subtracted, spectra were smoothed using a third-order least-squares polynomial fit with a conservative window size to give random residuals. Raw ellipticity values were converted to mean residue ellipticity using standard methods, and plotted was the wavelength (from 200 to 260 nm) versus [θ]×10−3 (degrees cm^2/dmol). Percent helicity values were then calculated using standard methods (usually expressed as percent helicity at 10 μM, 25° C.). Assessment of thermal stability was performed by monitoring the change in CD signal at 222 nm as temperature was raised in 2° C. steps, with 1 minute equilibration times. The stability for each sample (e.g., HIV fusion inhibitor peptide), as represented by the Tm value, is the temperature corresponding to the maximum value of the first derivative of the thermal transition.

HIV-Res = assay type: cell-based, HIV-1; conditions: resistant viral isolate "Res"
Source text: Assessment of biological properties included measurement of antiviral activity against HIV-1 strains. In determining antiviral activity (e.g., one measure being the ability to inhibit transmission of HIV to a target cell) of the HIV fusion inhibitor peptides, an in vitro assay which has been shown, by data generated using peptides derived from the HR regions of HIV gp41, to be predictive of antiviral activity observed in vivo was used. […] These assays score for reduction of infectious virus titer employing the indicator cell lines MAGI or the CCR5 expressing derivative cMAGI. Both cell lines exploit the ability of HIV-1 tat to transactivate the expression of a β-galactosidase reporter gene driven by the HIV-LTR. The β-gal reporter has been modified to localize in the nucleus and can be detected with the X-gal substrate as intense nuclear staining within a few days of infection. […] The number of infected cells for each control and peptide dilution was determined with the CCD-imager, and then the IC50 was calculated (expressed in μg/ml).
Viruses resistant to the antiviral activity of a peptide consisting of a base sequence can be produced using standard laboratory methods. […] The cultures are maintained and monitored until syncytia are present. […] The second round of culture is maintained and monitored for presence of virus resistant to the antiviral activity of the peptide. […]

[4] = Helicity by circular dichroism (CD); assay type: physicochemical; conditions: usually percent helicity at 10 μM, 25° C.
Experimental: as §1

[5] = system: virus isolates (IIIB, 030, 060 and 098); conditions: Geometric Mean of four isolates
Source text: (§2) Assessment of biological properties included measurement of antiviral activity against HIV-1 strains. […] These assays score for reduction of infectious virus titer employing the indicator cell lines MAGI or the CCR5 expressing derivative cMAGI. Both cell lines exploit the ability of HIV-1 tat to transactivate the expression of a β-galactosidase reporter gene driven by the HIV-LTR. The β-gal reporter has been modified to localize in the nucleus and can be detected with the X-gal substrate as intense nuclear staining within a few days of infection. The number of stained nuclei can thus be interpreted as equal to the number of infectious virions in the challenge inoculum if there is only one round of infection prior to staining. […] In the MAGI and cMAGI assays, a 50% reduction in infectious titer (Vn/Vo=0.5) is significant, and provides the primary cutoff value for assessing antiviral activity (“IC50” is defined as the concentration of active ingredient resulting in a 50% reduction in infectious virus titer). […] The peptide (in the respective dilution) was added to the cMAGI or MAGI cells, followed by the virus inocula; and 24 hours later, an inhibitor of infection and cell-cell fusion (e.g., SEQ ID NO:2 (enfuvirtide)) was added to prevent secondary rounds of HIV infection and cell-cell virus spread. The cells were cultured for 2 more days, and then fixed and stained with the X-gal substrate to detect HIV-infected cells. The number of infected cells for each control and peptide dilution was determined with the CCD-imager, and then the IC50 was calculated (expressed in μg/ml).
(§3) In particular, in vitro resistance comparison studies were performed between the novel SEQ ID NO:9 compound of interest and established antiviral agent SEQ ID NO:2, described in detail as follows: MT2 cells were infected with virus isolates (IIIB, 030, 060 and 098) and cultured in increasing concentrations of SEQ ID NO:2 (enfuvirtide) or SEQ ID NO:9 to select for resistance. The initial peptide concentration was approximately 2 times the IC50 of each peptide against the corresponding wild type isolate. Peptide concentrations were maintained by adding fresh peptide every 1-3 days. Cultures were monitored for cytopathic effect (CPE) using standard techniques and when maximal CPE was achieved, a small aliquot of virus was used for subsequent rounds of infection. Peptide concentrations were increased 2 to 4-fold depending on the length of time in culture when compared to the growth rate of wild type virus. During the course of selection, peptide-free virus stocks were also collected. Peptide-free virus stocks were characterized for gp41 genotypic changes by dideoxy sequencing chemistries and phenotypic susceptibility was determined using a cMAGI infectivity assay.

IIIB = conditions: starting virus isolate IIIB
Source text: as §2, §3

584.000060 = system: 584.000060
Source text: as §2, §3

584.000030 = system: 584.000030
Source text: as §2, §3

584.000098 = system: 584.000098
Source text: as §2, §3

CC[C@H](C)[C@H](NC(=O)[C@H](C)NC(=O)[C@H](CCCNC(=N)N)NC(=O)[C@H](CC(=O)O)NC(=O)[C@H](Cc1c[nH]c2ccccc12)NC(=O)[C@H](C)NC(=O)[C@H](CCC(=O)O)NC(=O)[C@H](Cc1c[nH]c2ccccc12)NC(=O)[C@@H](NC(=O)[C@@H](NC(C)=O)[C@@H](C)O)[C@@H](C)O)C(=O)N[C@@H](C)C(=O)N[C@@H](CCC(=O)O)C(=O)N[C@@H](Cc1ccc(O)cc1)C(=O)N[C@@H](C)C(=O)N[C@@H](C)C(=O)N[C@@H](CCCNC(=N)N)C(=O)N[C@H](C(=O)N[C@@H](CCC(=O)O)C(=O)N[C@@H](C)C(=O)N[C@@H](CC(C)C)C(=O)N[C@H](C(=O)N[C@@H](CCCNC(=N)N)C(=O)N[C@@H](C)C(=O)N[C@@H](C)C(=O)N[C@@H](CCC(N)=O)C(=O)N[C@@H](CCC(=O)O)C(=O)N[C@@H](CCC(N)=O)C(=O)N[C@@H](CCC(N)=O)C(=O)N[C@@H](CCC(=O)O)C(=O)N[C@@H](CCCCN)C(=O)N[C@@H](CC(N)=O)C(=O)N[C@@H](CCC(=O)O)C(=O)N[C@@H](C)C(=O)N[C@@H](C)C(=O)N[C@@H](CC(C)C)C(=O)N[C@@H](CCCNC(=N)N)C(=O)N[C@@H](CCC(=O)O)C(=O)N[C@@H](CC(C)C)C(N)=O)[C@@H](C)CC)[C@@H](C)CC [SEQ ID NO:5]
peptide remaining detectable in solution ([1]; time point of 1 week): less than 80%
clearance [2]: > 0.667 mL/min/kg
half-life [2]: 6 h

Ac-TTWEAWDRAIAEYAARIEALIRAAQEQQEKLEAALREL-NH2 (N-terminus and C-terminus assumed) [SEQ ID NO:7]
biological half-life relative to base sequence, in words [2]: increased biological half-life
clearance [2]: < 0.333 mL/min/kg
half-life [2]: 17 h

Ac-TTWEAWDRAIAEYAARIEALIRALQEQQEKNEAALREL-NH2 (N-terminus and C-terminus assumed) [SEQ ID NO:6]
biological half-life relative to base sequence, in words [2]: increased biological half-life
clearance [2]: < 0.333 mL/min/kg
half-life [2]: 15 h

Ac-TTWEAWDRAIAEYAARIEALLRAAQEQQEKLEAALREL-NH2 [SEQ ID NO:10, TTWEAWDRAIAEYAARIEALLRAAQEQQEKLEAALREL]
Antiviral Activity (μg/ml) HIV-IIIB IC50 (HIV-IIIB): <0.10 µg/mL
Tm (° C.) [3]: 75 °C
Antiviral Activity (μg/ml) HIV-Res IC50 (HIV-Res): <0.10 µg/mL
biological half-life relative to base sequence, in words [2]: increased biological half-life
clearance [2]: < 0.333 mL/min/kg
half-life [2]: 21 h
Helicity (%) [4]: 77%

Ac-TTWEAWDRAIAEYAARIEALLRAAQEQQEKNEAALREL-NH2 (N-terminus and C-terminus assumed) [SEQ ID NO:8]
biological half-life relative to base sequence, in words [2]: does not exhibit the dramatic increase in half-life
clearance [2]: > 0.667 mL/min/kg
half-life [2]: 7 h

enfuvirtide
Fold Change in IC50 [5]: 42
Ending IC50 ([5]; after selection): 0.797 µg/mL
Starting IC50 ([5]; before selection): 0.019 µg/mL
Fold Change in IC50 (IIIB): 27
Ending IC50 (IIIB; after selection): 0.163 µg/mL
Starting IC50 (IIIB; before selection): 0.006 µg/mL
Fold Change in IC50 (584.000060; starting virus isolate 584.000060): 7
Ending IC50 (584.000060; starting virus isolate 584.000060, after selection): 0.068 µg/mL
Starting IC50 (584.000060; starting virus isolate 584.000060, before selection): 0.01 µg/mL
Fold Change in IC50 (584.000030; starting virus isolate 584.000030): 19
Ending IC50 (584.000030; starting virus isolate 584.000030, after selection): 0.798 µg/mL
Starting IC50 (584.000030; starting virus isolate 584.000030, before selection): 0.042 µg/mL
Fold Change in IC50 (584.000098; starting virus isolate 584.000098): 912
Ending IC50 (584.000098; starting virus isolate 584.000098, after selection): 45.575 µg/mL
Starting IC50 (584.000098; starting virus isolate 584.000098, before selection): 0.05 µg/mL
stability of solution, in words [1]: becomes unstable after just several hours
